The values below are quoted from earlier work in patent publication US20200155636A1, “Medicament and Beverage for Improving Joint and Bone Diseases” (priority 2017, published 2020).

For the data set the following is noted: oral application.

On to hyaluronic acid, for which the “stability against gastric acid” value is “survives the gastric acid”. The absorption result (small intestine) is given as “absorbed in the small intestine”.
